This is an account of results in patent US20240226225A1 (Protagonist Therapeutics, Inc., priority 2021, published 2024).

Experiment [1] deals with human ferroportin (SLC40A1) fused in frame with GFP, stably expressed in HEK293 cells (human) (UniProt Q9NP59). The experiment can be described thus: cell-based or functional assay.
For experiment [2], the system named is ferroportin fused to green fluorescent protein. The conditions noted are these: read-out: EC50 (50% of the maximal loss of fluorescence); cells incubated for 24 hours with graded concentrations; cited from earlier work.
Experiment [3] concerns the target T1, ferroportin (Homo sapiens, UniProt Q9NP59).
T1 sequence (Q9NP59 1-571): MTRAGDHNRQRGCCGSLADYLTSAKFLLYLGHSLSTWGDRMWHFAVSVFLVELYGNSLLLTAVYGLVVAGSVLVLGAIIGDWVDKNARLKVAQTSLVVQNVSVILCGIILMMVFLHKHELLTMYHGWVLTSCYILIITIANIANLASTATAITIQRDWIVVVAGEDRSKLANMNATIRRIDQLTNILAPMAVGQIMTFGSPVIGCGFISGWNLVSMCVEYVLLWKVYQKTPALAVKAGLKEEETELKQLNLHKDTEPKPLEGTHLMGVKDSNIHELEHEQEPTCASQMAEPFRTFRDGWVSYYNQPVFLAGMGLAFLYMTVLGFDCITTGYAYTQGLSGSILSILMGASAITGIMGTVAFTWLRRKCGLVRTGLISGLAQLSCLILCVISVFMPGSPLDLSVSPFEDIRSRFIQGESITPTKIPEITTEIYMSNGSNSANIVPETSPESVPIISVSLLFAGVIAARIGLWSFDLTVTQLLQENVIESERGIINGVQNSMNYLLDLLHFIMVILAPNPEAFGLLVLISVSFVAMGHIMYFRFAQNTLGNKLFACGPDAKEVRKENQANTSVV
Kind of experiment: T47D cell-based ferroportin internalization assay in presence of 0.5% mouse serum albumin (MSA), AF647-conjugated detection peptide, flow cytometry. Also on record: a human breast carcinoma adherent cell line which endogenously expresses ferroportin; host or cells: T47D. The conditions noted are these: T47D cells, 1 hr incubation. The method, then:
The potency of the peptides in causing ferroportin internalization was evaluated in a T47D cell-based assay. […] In this internalization assay, the potency of the test peptides was evaluated in presence of serum albumin which is the main protein component in the blood. T47D cells were maintained in RPMI media (containing required amount of fetal bovine serum) and regularly sub-cultured. In preparation for the assay, the cells were seeded in 96-well plates at a density of 80-100 k cells per well in 100 ul volume and allowed to rest overnight. On the next day, test peptides were first prepared in dilution series (10-point series, starting concentration of ˜5 μM, typically 3-4×fold dilution steps), all with 0.5% mouse serum albumin (MSA purified from mouse serum; Sigma, A3139). The test peptide dilution series were allowed to incubate at room temperature for 30 min. Then the media was aspirated from the 96-well cell plate and test peptide dilution series were added. After 1 hr incubation, the media with test peptides was aspirated out and AF647-conjugated detection peptide was added at fixed concentration of 200 nM. The AF647-conjugated detection peptide was previously verified to bind to ferroportin and cause its internalization. The cells were washed again after a 2 hr incubation in preparation for flow cytometry analysis. The Median Fluorescence Intensity (MFI) of the AF647-positive population was measured (after removing dead cells and non-singlets from the analysis). The MFI values were used to generate a dose-response curve and obtain IC50 potencies for the test peptides. The IC50 potencies were calculated by using 4-parameter non-linear fitting function in Graphpad Prism (Table 2A).

The target in experiment [4] is T1, ferroportin. Kind of experiment: FPN activity assay: internalization/degradation of ferroportin-GFP in stably transfected HEK293 cells, decrease in GFP fluorescence. The format is cell-based. On the set-up: expressed in transfected cells. The conditions noted are these: HEK293 cells stably expressing ferroportin-GFP, at least 18 hours incubation; read-out: FPN EC50.

A value given as a limit tells only on which side of the number the result lay.

As for “RI-Mini Hepcidin, Hy-DPhe-DIle-DCys-DIle-DPro-DPhe-DHis-DThr-DAsp-NH2 (peptide)”, the Potency EC50 (nM), FPN activity assay (ferroportin-GFP internalization/degradation, HEK293 cells) in experiment [1] was over 10000 nM.
Consider “Hy-DTHFPIC(1)IFC(2)C(3)GC(2)C(4)HRSKC(3)GMC(4)C(1)KT-OH [Hepcidin]”, for which the concentration for a half-maximal effect (EC50) (commonly the concentration at which the effect is half-maximal) in experiment [2] was 0.005 to 0.015 µM.
The molecule Mini-Hepcidin 1-9, Hy-…-NH2 (peptide) had a Potency EC50 (nM), FPN activity assay (ferroportin-GFP internalization/degradation, HEK293 cells) in experiment [1] of 712 nM.
With `CC[C@H](C)[C@@H]1NC(=O)[C@@H](NC(=O)[C@@H]2CCCN2C(=O)[C@@H](NC(=O)[C@H](Cc2cncn2C)NC(=O)[C@@H](NC(=O)[C@H](CC2N=NN=N2)NC(=O)CC(C)C)[C@@H](C)O)C(c2ccccc2)c2ccccc2)CSSC[C@@H](C(N)=O)NC(=O)[C@@H](CCCCN)NC(=O)C[C@H](Cc2ccccc2)NC(=O)[C@H](CCCCNC(=O)COCCOCCNC(=O)COCCOCCNC(=O)CC[C@H](NC(=O)CCCCCCCCCCCCCCCCC(=O)O)C(=O)O)NC1=O` [Compd 8, Isovaleric Acid-[Tet1]-T-[His_3Me]-[Dpa]-P-[Cys]-I-[Lys(1PEG2_1PEG2_IsoGlu_C18_Diacid)]-[bhPhe]-[(D)Lys]-[Cys]-NH2], at ferroportin [3], the IC50 (in general, the concentration needed to halve the response being measured) lay in the range of 0.1 to 0.5 µM. Besides, the DC50 at ferroportin [4] was in the range of 0.01 to 0.1 µM.
